# Measured values taken from publication PMC9856044 (Biomolecules, 2023).
# Counter-ions that a name gives are not always drawn.
# Key:
# [1] = test system: poly(dAdT)2 (AT-DNA) (DNA, polymer) AT; test: CD titration (ICD); details: Na+ (sodium cacodylate, I = 0.05 M), pH 7.0, 25 °C
# [2] = test system: poly(dGdC)2 (GC-DNA) (DNA, polymer) GC; test: CD titration (ICD); details: Na+ (sodium cacodylate, I = 0.05 M), pH 7.0, 25 °C
# [3] = test system: poly A–poly U (AU-RNA) (RNA, polymer) A/U; test: CD titration (ICD); details: Na+ (sodium cacodylate, I = 0.05 M), pH 7.0, 25 °C
# [4] = test system: Tel22 (DNA, G4) AGGGTTAGGGTTAGGGTTAGGG; test: UV thermal melting, 260 nm; details: pH 7.0, Tel22 2 µM, r = 1.0 (compound 2 µM)
# [5] = test system: Tel22 (DNA, G4) AGGGTTAGGGTTAGGGTTAGGG; test: fluorescence titration (SPECFIT); details: pH 7.0, 25 °C; for logKa: K+ (potassium phosphate, I = 0.1 M); for logKa1: Na+ (sodium cacodylate, I = 0.1 M)
# [6] = test system: poly(dAdT)2 (AT-DNA) (DNA, polymer) AT; test: UV thermal melting, 260 nm; details: Na+ (sodium cacodylate, I = 0.05 M); pH 7.0; r [compound]/[nucleotide phosphate] = 0.1; per base
# [7] = test system: Tel22 G-quadruplex; test: Thermal melting of Tel22 in sodium cacodylate buffer; assay type: binding, human; details: Tel22, r = 1.0, sodium cacodylate buffer, pH = 7.0, I = 0.1 mol dm^−3; error ± 0.5 °C
# Procedure: (§1) Thermal melting curves for DNA, RNA and their complexes with studied compounds were determined as previously described by following the absorption change at 260 nm as a function of temperature. The absorbance of the ligands was subtracted from every curve and the absorbance scale was normalized. Tm values are the midpoints of the transition curves determined from the maximum of the first derivative and checked graphically by the tangent method. The ∆Tm values were calculated by subtracting Tm of the free nucleic acid from Tm of the complex. Every ∆Tm value here reported was the average of two measurements. The error in ∆Tm is ±0.5 °C. 5′-AGGG(TTAGGG)3–3′(Tel22) was obtained from IDT (Integrated DNA Technologies, Coralville, IA, USA). Tel22 was dissolved in 0.1 M either in sodium cacodylate or potassium phosphate buffer. The starting Tel22 oligonucleotide solution was first heated up to 95 °C for 10 min, then slowly cooled to 10 °C at the cooling rate of 1 °C/min to allow DNA oligonucleotide to adopt a G-quadruplex structure. The G-quadruplex structure was confirmed by thermal melting and CD spectra. The concentration of G quadruplex was expressed in terms of oligonucleotide structure. In fluorimetric titrations, aliquots of Tel 22 solution were added to the solution of ligands (c ~ 2 × 10^−7 M, in SI).
# [8] = Solubility and aggregation (UV/Vis characterization); assay type: physicochemical; details: for Aggregation in aqueous buffer: sodium cacodylate buffer, I = 0.05 mol dm^−3, pH = 7.0, UV/Vis
# Procedure: The UV/vis spectra were recorded on a Varian Cary 100 Bio spectrophotometer (Agilent, Santa Clara, CA, USA), CD spectra on JASCO J815 spectrophotometer (ABL&E Handels GmbH, Wien, Austria) and fluorescence spectra on a Varian Cary Eclipse spectrophotometer (Agilent, Santa Clara, CA, USA) at 25 °C using appropriate 1 cm path quartz cuvettes.
# Studied compounds, 1–6 were soluble (c = 8 × 10^−4 mol dm^−3) in DMSO. […] Therefore, the stock solution of 2 was prepared fresh before use. The experiments were done in aqueous buffer (sodium cacodylate buffer, I = 0.05 mol dm^−3; pH = 7.0).
# However, the shape of UV/Vis spectra of cyanine 2 changed with increasing concentration (calibration experiment in Figure S2 in SI). In addition to the dominant maximum at 432 nm (which most likely corresponds to the monomer form of the dye), the absorption band at 413 nm becomes more intense (Figure S2 in SI). Presumably, it corresponds to the aggregated form (H-aggregate). Based on the existence of an absorption band at 432 nm, only the monomer dye form is visible at high temperature (95 °C) (Figure S8b in SI). However, after cooling the solution to 25 °C, an additional band appears at 413 nm, which corresponds to the aggregated dye form.
# [9] = molecular target: Tel22 (5′-AGGG(TTAGGG)3–3′) G-quadruplex; test: Fluorimetric titration with Tel22 in sodium cacodylate buffer (Na+ solution); assay type: binding, human
# Procedure: (§2) Materials. Polynucleotides were purchased as noted: poly A–poly U, calf thymus ctDNA, poly(dAdT)2 and poly(dGdC)2 (Sigma-Aldrich, St. Louis, MI, USA). Polynucleotides were dissolved in Na-cacodylate buffer, I = 0.05 mol dm^−3, pH = 7.0. The calf thymus ctDNA was additionally sonicated and filtered through a […]. Polynucleotide concentration was determined spectroscopically as the concentration of phosphates. Spectrophotometric titrations were performed at pH = 7.0 (I = 0.05 mol dm^−3, sodium cacodylate buffer) by adding aliquots of polynucleotide solution into the solution of the studied compound for fluorimetric experiments and CD experiments were done by adding aliquots of the compound stock solution into the solution of a polynucleotide. In fluorimetric experiments, an excitation wavelength of λexc = 425, 431, 423, 427, 406 and 407 nm, respectively, was used to avoid the inner filter effect caused due to increasing absorbance of the polynucleotide. Emission was collected in the range λem = 400–700 nm. Values for Ka obtained by processing titration data using the Scatchard equation [27], all have satisfactory correlation coefficients (≥0.98).
# as §1
# (§3) Binding constants (log Ka) and stoichiometry of complexes were calculated from the fluorimetric data using non-linear least-square program SPECFIT [46], in the concentration range that corresponded to 20–80% complex formed.
# [10] = molecular target: Tel22 (5′-AGGG(TTAGGG)3–3′) G-quadruplex; test: Fluorimetric titration with Tel22 in potassium phosphate buffer (K+ solution); assay type: binding, human; details: Tel22, potassium phosphate buffer, pH = 7.0, I = 0.1 mol dm^−3; SPECFIT fit
# Procedure: as §2, §1, §3
# [11] = test system: Tel22 G-quadruplex; test: Thermal melting of Tel22 in potassium phosphate buffer; assay type: binding, human; details: Tel22, r = 1.0, potassium phosphate buffer, pH = 7.0, I = 0.1 mol dm^−3; error ±0.5 °C
# Procedure: as §1
# [12] = test system: HeLa cells; test: MTT cytotoxicity assay, HeLa; assay type: cell-based; details: Homo sapiens, 72 h incubation, ± SD
# Procedure: (§4) Human cervical carcinoma HeLa (GIBCO BRL, Invitrogen, Waltham, MA, USA), human melanoma MDA-MB-435S and human ovarian adenocarcinoma SK-OV-3 (ATCC-LGC Standards GmbH, Wesel, Germany) cell lines were purchased from indicated cell culture banks. Normal human skin fibroblasts were isolated from the upper arm of a donor at the Neurochemical Laboratory, Department of Chemistry and Biochemistry, School of Medicine, University of Zagreb. HeLa, MDA-MB-435S and fibroblasts were grown in Dulbecco’s Modified Eagle’s Medium (DMEM; Sigma-Aldrich, St. Louis, MI, USA) while the SK-OV-3 cell line was grown in McCoy’s 5A medium (Capricorn Scientific, Ebsdorfergrund, Germany). All media were supplemented with 10% fetal bovine serum (FBS; Sigma-Aldrich) and 50 I.U./mL penicillin and 50 μg/mL streptomycin. Cells were cultured in a humidified atmosphere of 5% CO2 at 37 °C and were sub-cultured every 3–4 days. HeLa, MDA-MB-435S, SK-OV-3 cells and fibroblasts were seeded in 96 well plates. Twenty-four hours later the cells were treated, in quadruplicate, with different concentrations of compounds (dissolved in DMSO, kept at 4 °C and protected from light). Following 72 h of incubation at 37 °C, the medium was aspired and modified 3-(4,5-dimethylthiazol-2-yl)-2,5-diphenyltetrazolium bromide (MTT) assay was used to determine the cytotoxic effect of the tested compounds. Three hours later, formazan crystals were dissolved in DMSO (0.17 mL/well), the plates were mechanically agitated for 20 min and the optical density at 600 nm was determined on a microtiter plate reader (Awareness Technology Inc., Palm City, FL, USA). The experiments were repeated three times.
# [13] = test system: MDA-MB-435S cells; test: MTT cytotoxicity assay, MDA-MB-435S; assay type: cell-based; details: Homo sapiens, 72 h incubation, ± SD
# Procedure: as §4
# [14] = test system: SK-OV-3 cells; test: MTT cytotoxicity assay, SK-OV-3; assay type: cell-based; details: Homo sapiens, SK-OV-3, 72 h incubation, ± SD
# Procedure: as §4
# [15] = test system: Fibroblasts; test: MTT cytotoxicity assay, normal human skin fibroblasts; assay type: cell-based; details: Fibroblast, 72 h incubation, ± SD
# Procedure: as §4
# [16] = K+ (potassium phosphate, I = 0.1 M)
# [17] = Na+ (sodium cacodylate, I = 0.1 M)
structure (smiles),measurement,setting,value
CN1C(=Cc2[se]c3ccccc3[n+]2C)Sc2cc(Cl)ccc21,binding,[1]; positive ICD at 440 nm,yes
same,binding,[2]; bisignate ICD +440/−410 nm,yes
same,binding,[3]; bisignate ICD +405/−385 nm,yes
same,∆Tm,[4]; [16],3.2 °C
same,∆Tm,[4]; [17],2.1 °C
same,logKa,[5],7.78 ± 0.18
same,logKa1,[5],6.19 ± 0.01
CN1C(=Cc2[se]c3ccccc3[n+]2C)Sc2ccccc21,binding,[1]; positive ICD at 440 nm,yes
same,binding,[3]; bisignate ICD +405/−385 nm,yes
same,∆Tm,[4]; [16],0.5 °C
same,∆Tm,[4]; [17],0.5 °C
same,logKa,[5],6.88 ± 0.05
same,logKa1,[5]; site 1 of 2,7.26 ± 0.41
C[n+]1c(C=C2Sc3ccccc3N2CCCS)[se]c2ccccc21,∆Tm,[4]; [16],5.1 °C
same,∆Tm,[4]; [17],2.1 °C
same,∆Tm,[6],4 °C
C[n+]1c(C=C2Sc3ccccc3N2CCS)[se]c2ccccc21,binding,[1]; bisignate ICD +440/−400 nm,yes
same,binding,[2]; bisignate ICD +440/−400 nm,yes
same,binding,[3]; bisignate ICD,yes
same,∆Tm,[4]; [16],6.9 °C
same,∆Tm,[4]; [17],2.0 °C
"CN1/C(=C/c2[se]c3ccccc3[n+]2C)Sc2ccccc21 (as salt: sulphate) [Compound 3, 3-methyl-2-((3-methylbenzo[d]thiazol-2(3H)-ylidene)methyl)benzo[d][1,3]selenazol-3-ium methosulphate]",melting point,,> 300 °C
"CN1/C(=C/c2[se]c3ccccc3[n+]2C)Sc2cc(Cl)ccc21 (as salt: sulphate) [Compound 4, 2-((6-chloro-3-methylbenzo[d]thiazol-2(3H)-ylidene)methyl)-3-methylbenzo[d][1,3]selenazol-3-ium methosulphate]",melting point,,> 300 °C
"C[n+]1c(/C=C2\Sc3ccccc3N2CCCS)[se]c2ccccc21 (as salt: sulphate) [Compound 5, 2-((3-(3-mercaptopropyl)benzo[d]thiazol-2(3H)-ylidene)methyl)-3-methylbenzo[d][1,3]selenazol-3-ium methosulphate]",melting point,,233 to 236 °C
"C[n+]1c(/C=C2\Sc3ccccc3N2CCS)[se]c2ccccc21 (as salt: sulphate) [Compound 6, 2-((3-(2-mercaptoethyl)benzo[d]thiazol-2(3H)-ylidene)methyl)-3-methylbenzo[d][1,3]selenazol-3-ium methosulphate]",melting point,,245 to 247 °C
"COc1ccc2c(c1)SC(=Cc1[se]c3ccccc3[n+]1C)N2CCCS(=O)(=O)[O-] [Compound 2, 3-(6-methoxy-2-((3-methylbenzo[d][1,3]selenazol-3-ium-2-yl)methylene)benzo[d]thiazol-3(2H)-yl)propane-1-sulfonate]",∆Tm,[7],0 °C
same,Aggregation in DMSO stock solution,"[8]; DMSO, after several weeks",prone to aggregation
same,Aggregation in aqueous buffer,[8],mixture of monomer and aggregated form
same,melting point,,> 300 °C
same,∆Tm,[4]; [17],0 °C
"CN1/C(=C/c2[se]c3ccccc3[n+]2C)Sc2cc(Cl)ccc21 [Compound 4, 2-((6-chloro-3-methylbenzo[d]thiazol-2(3H)-ylidene)methyl)-3-methylbenzo[d][1,3]selenazol-3-ium methosulphate]",logKa1 (L + G ⇆ LG),"[9]; Tel22, sodium cacodylate buffer, pH = 7.0, I = 0.1 mol dm^−3, SPECFIT fit of fluorescence titration",6.19 ± 0.01
same,Selectivity for G-quadruplex over duplex DNA,"[9]; binding affinities Tel22 vs duplex DNA, in both the Na+ and K+ solutions",100 fold
same,"logKa (L + G ⇆ LG, 1:1 complex)",[10],7.78 ± 0.18
same,∆Tm,[7],2.1 °C
same,∆Tm,[11],3.2 °C
same,IC50,[12],793 ± 157 nM
same,IC50,[13],614 ± 77.6 nM
same,IC50,[14],1320 ± 125 nM
same,IC50,[15],> 2500 nM
same,Aggregation in aqueous buffer,[8],do not form aggregates
